Test results from US7160867B2 (Isotechnika, Inc., priority 2003, dated 2007).
“Also recorded” adds a separate entry of the source. One block for each molecule: values may come before it.

Experiments:
[1] = Hydrolysis of rapamycin carbohydrate derivatives in human whole blood; assay type: in vitro ADME; details: spiked in human whole blood; free rapamycin by HPLC at 1 hour
[2] = Stability toward hydrolysis in acidic media; assay type: physicochemical; details: 70/30 methanol/0.1N HCl (pH 1.5); free rapamycin by HPLC at 1 hour
[3] = test system: primary blood lymphocyte cultures (PBMC); experiment: In vitro immunosuppressive activity, PBMC proliferation (alamar blue); assay type: cell-based; details: 3-day culturing, FIG. 5
Beagle dogs = experiment: Gastrointestinal tolerability in beagle dogs
[4] = Pharmacokinetic profiles in rats after oral dosing (rapamycin in whole blood by LC/MS); assay type: in vivo, Sprague Dawley rats; details: 2.5 or 10 mg/kg
Description: The pharmacokinetic profiles in rats of selected rapamycin carbohydrate derivatives were determined to investigate the ability of the derivatives to deliver free rapamycin into the bloodstream in vivo. […] Whole blood was extracted via jugular bleed over 24 hours and frozen at −20° C. until analysis. Whole blood was analyzed by Liquid Chromatography Mass Spectrometry for the presence of rapamycin.

washed human platelets = experiment: Washed human platelet aggregation assay; details: 25 μg/ml, 2 μM ADP, after 8 minutes, FIG. 11
[5] = test system: heterotopic heart allografts; experiment: Graft survival of heterotopic heart allografts in rats; assay type: in vivo, Wistar Furth rats to Lewis rats
Description: If graft dysfunction was noted during the 30-day post-transplantation period, the animal was sacrificed. If the animal survived longer than 30 days post-transplantation, the test and control articles were discontinued and the animal was allowed to continue until graft dysfunction or up to 100 days post-transplantation.

Sprague-Dawley rats = experiment: Serum cholesterol levels in rats; assay type: in vivo; details: 2.5 mg/kg/day for 12 days
Description: Cholesterol levels were measured at the 24-hour trough level on day 11.

[6] = in plasma and in low and neutral pH buffers at 37° C.; cited from earlier work
[7] = [14C]-rapamycin, healthy male volunteers; cited from earlier work
[8] = 2.5 mg/kg/day oral gavage, day -3 to day 30, N = 6 (derivative n = 5)

Extent of Hydrolysis (%) [1]: 23 ± 0.5%
Extent of Hydrolysis (%) [2]: <1%
Compound: CO[C@H]1C[C@@H]2CC[C@@H](C)[C@@](O)(O2)C(=O)C(=O)N2CCCC[C@H]2C(=O)O[C@H]([C@H](C)C[C@@H]2CC[C@@H](O)[C@H](OC)C2)CC(=O)[C@H](C)/C=C(\C)[C@@H](OC(=O)OCC2(O)OC[C@@H](O)[C@@H](O)[C@@H]2O)[C@@H](OC)C(=O)[C@H](C)C[C@H](C)/C=C/C=C/C=C/1C (stereo partly drawn) [31-O-(D-Fructosylcarbonyl)rapamycin]

Compound: CO[C@H]1C[C@@H]2CC[C@@H](C)[C@@](O)(O2)C(=O)C(=O)N2CCCC[C@H]2C(=O)O[C@H]([C@H](C)C[C@@H]2CC[C@@H](OC(=O)OCC3(O)OC[C@@H](O)[C@@H](O)[C@@H]3O)[C@H](OC)C2)CC(=O)[C@H](C)/C=C(\C)[C@@H](O)[C@@H](OC)C(=O)[C@H](C)C[C@H](C)/C=C/C=C/C=C/1C (stereo partly drawn) [42-O-(D-Fructosylcarbonyl)rapamycin]
Extent of Hydrolysis (%) [1]: 28 ± 2%
cell proliferation inhibition / immunosuppressive activity [3]: equivalent to rapamycin
Observations (Beagle dogs; beagle dog 4, oral dose 1 mg/kg, rapamycin given one week after the derivative, 1 mg/kg): Lethargic; also recorded: Recovered
Observations (Beagle dogs; beagle dog 4, oral dose 1 mg/kg, rapamycin given one week after the derivative, listed as 42-O-(D-fructosylcarbonyl)rapamycin, 1 mg/kg): slight lethargy
Observations (Beagle dogs; beagle dogs, single oral dose 10 mg/kg, 10 mg/kg): Normal
Observations (Beagle dogs; beagle dogs, single oral dose 10 mg/kg, listed as 42-O-(D-fructosylcarbonyl)rapamycin, 10 mg/kg): no overt physical changes
Extent of Hydrolysis (%) [2]: <1%
time to maximum concentration of rapamycin in blood ([4]; FIG. 6): approximately 3 hours
platelet aggregation (washed human platelets): does not exhibit a measurable effect
prolonged survival of the graft over the vehicle control ([5]; 2.5 mg/kg/day): 214%
Average Survival Time (days post-transplant) Mean ± SEM [5, 8]: 41 ± 4 days post-transplant
prolonged survival of the graft over the vehicle control ([5]; 10 mg/kg/day): 341%
Average Survival Time (days post-transplant) Mean ± SEM ([5]; 10 mg/kg/day oral gavage, day -3 to day 30, N = 6): 57 ± 4 days post-transplant
serum cholesterol level relative to vehicle control group (Sprague-Dawley rats; 24-hour trough on day 11, FIG. 9): not significantly different
serum cholesterol level relative to rapamycin group (Sprague-Dawley rats; 24-hour trough on day 11, p<0.01, FIG. 9): significantly lower

Compound: CO[C@H]1C[C@@H]2CC[C@@H](C)[C@@](O)(O2)C(=O)C(=O)N2CCCC[C@H]2C(=O)O[C@H]([C@H](C)C[C@@H]2CC[C@@H](O)[C@H](OC)C2)CC(=O)[C@H](C)/C=C(\C)[C@@H](O)[C@@H](OC)C(=O)[C@H](C)C[C@H](C)/C=C/C=C/C=C/1C [Rapamycin]
half-life of degradation [6]: less than 10 hours
share of the total radioactivity in blood [7]: approximately 35%
time to maximum concentration of rapamycin in blood ([4]; FIGS. 6 and 7): approximately 30 minutes
Average Survival Time (days post-transplant) Mean ± SEM [5, 8]: 39 ± 4 days post-transplant
